# Data taken from patent US11716994B2, “Combinations of Yersinia entomophaga and pesticides or other substances” (priority 2017, dated 2023).
# Where “and” joins values, the source holds several entries; their conditions need not be identical. Equal entries are not always repeated. Where two headings read alike, the source gives them in different places.
# Assays:
# fall armyworm [1] = details: fipronil 12 mg/L
# Protocol: To produce cell free filtrates, cultures of Yersinia entomophaga grown in LB medium were centrifuged at 11,448 (g) for 10 minutes. The supernatant was decanted from the centrifuged pellet and filtered through a 0.22 μm filter. Assays were performed to determine concentrations of Yen-TC (toxin complex) using ELISA, and chitinase by measuring chitinase activity on specific substrates. […] This was done to estimate relative potency of the cell free filtrates. Insects were first pre-screened with a range of dilutions of cell free filtrates to select a concentration that provided moderate activity. […] Based on these initial screens, undiluted cell free filtrate was used for cabbage looper, fall armyworm, black cutworm, and Colorado potato beetle.
# Cabbage leaf disks were dipped in either acetone (controls and Y. entomophaga alone treatments) or fipronil (Sigma 46451) at 12 mg/L in acetone. These were set to dry for 1 hr. […] After the cabbage disks had dried for 1 hr, a single 3rd instar fall armyworm was added to each individual cabbage disk. A total of 20 insects were evaluated for each treatment. Insects were observed daily and scored as live or dead.
# Cabbage leaf disks were dipped in either acetone (controls and Y. entomophaga alone treatments) or esfenvalerate (Sigma 46277) at 56 mg/L in acetone. These were set to dry for 1 hr. […] After the cabbage disks had dried for 1 hr, a single 3rd instar fall armyworm was added to each individual cabbage disk. A total of 20 insects were evaluate for each treatment. Insects were observed daily and scored as live or dead.
# fall armyworm [2] = experiment: Leaf disk mortality assay, Y. entomophaga cells with chemical insecticides; details: for mortality at 4 µg/mL: Spodoptera frugiperda, foliar; for % Mort. Chem.: Fipronil 4 mg/L
# Colorado potato beetle [3] = experiment: Tomato leaf disk mortality assay, Y. entomophaga cells with chemical insecticides; details: for mortality at 1 µg/mL: Leptinotarsa decemlineata, in Solanum lycopersicum, foliar
# Colorado potato beetle [4] = details: thiacloprid 1 mg/L
# Protocol: To produce cell free filtrates, cultures of Yersinia entomophaga grown in LB medium were centrifuged at 11,448 (g) for 10 minutes. The supernatant was decanted from the centrifuged pellet and filtered through a 0.22 μm filter. Assays were performed to determine concentrations of Yen-TC (toxin complex) using ELISA, and chitinase by measuring chitinase activity on specific substrates. […] This was done to estimate relative potency of the cell free filtrates. Insects were first pre-screened with a range of dilutions of cell free filtrates to select a concentration that provided moderate activity. […] Based on these initial screens, undiluted cell free filtrate was used for cabbage looper, fall armyworm, black cutworm, and Colorado potato beetle. […] In each of the Examples below, this is expressed as 1%.
# Tomato leaf disks were dipped in either acetone (controls and Y. entomophaga alone treatments) or thiacloprid (Sigma 37905) at 1 mg/L in acetone. These were set to dry for 1 hr. […] After the tomato disks had dried for 1 hr, a single 3rd instar Colorado potato beetle was added to each individual cabbage disk. A total of 20 insects were evaluate for each treatment. Insects were observed daily and scored as live or dead.
# diamondback moth = experiment: whole plant or invertebrate; details: thiacloprid 100 mg/L; for mortality at 100 µg/mL: Plutella xylostella, foliar, Abbott's corrected
# Source text: (§1) These were set to dry for 1 hr.
# as §1
# These were set to dry for 1 hr. Cabbage disks were then dipped in either 1% Luria broth (LB) media solution (controls and thiacloprid alone treatments) or in 1% cell free filtrate from a culture Y. entomophaga isolate O24G3R (Y. entomophaga alone or in combination with thiacloprid treatments).
smiles,measurement,setting,value
N#Cc1nn(-c2c(Cl)cc(C(F)(F)F)cc2Cl)c(N)c1[S+]([O-])C(F)(F)F (stereo not drawn) [Fipronil],LT50 (95% confidence intervals) in days,"fall armyworm [1]; 3rd instar fall armyworm, O43NEW undiluted filtrate, alone or combined",51.74 (34.99-79.58) days
same,LT50 Chem.,fall armyworm [1]; Fall armyworm,51.74 days
same,% Mort. Chem.,"fall armyworm [1]; Fall armyworm, 8 DAT",0%
same,LT50 (95% confidence intervals) in days,"fall armyworm [2]; 3rd instar, fipronil 4 mg/L, isolate O24G3R 1×10^5 cfu/mL",6.71 (6.15-7.32) days
same,LT50 (95% confidence intervals) in days,"fall armyworm [2]; 3rd instar, fipronil 4 mg/L, isolate O24KEK 1×10^5 cfu/mL",6.71 (6.15-7.31) days
same,LT50 (95% confidence intervals),"fall armyworm [2]; 3rd instar, fipronil 4 mg/L, isolate O43NEW 1×10^5 cfu/mL",8.86 days
same,LT50 (95% confidence intervals) in days,"fall armyworm [2]; 3rd instar, fipronil 4 mg/L, isolate O333A4 1×10^5 cfu/mL",6.71 (6.15-7.31) days
same,mortality at 4 µg/mL,"fall armyworm [2]; 96 h, read-out: % Mortality (4DAT), 3rd instar, fipronil 4 mg/L, isolate O24G3R 1×10^5 cfu/mL",5%
same,mortality at 4 µg/mL,"fall armyworm [2]; 96 h, read-out: % Mortality (4DAT), 3rd instar, fipronil 4 mg/L, isolate O24KEK 1×10^5 cfu/mL",5%
same,mortality at 4 µg/mL,"fall armyworm [2]; 96 h, read-out: % Mortality (4DAT), 3rd instar, fipronil 4 mg/L, isolate O333A4 1×10^5 cfu/mL",5%
same,mortality at 4 µg/mL,"fall armyworm [2]; 120 h, read-out: % Mortality (5DAT), 3rd instar, fipronil 4 mg/L, isolate O24G3R 1×10^5 cfu/mL",21%
same,mortality at 4 µg/mL,"fall armyworm [2]; 120 h, read-out: % Mortality (5DAT), 3rd instar, fipronil 4 mg/L, isolate O24KEK 1×10^5 cfu/mL",21%
same,mortality at 4 µg/mL,"fall armyworm [2]; 120 h, read-out: % Mortality (5DAT), 3rd instar, fipronil 4 mg/L, isolate O43NEW 1×10^5 cfu/mL",5%
same,mortality at 4 µg/mL,"fall armyworm [2]; 120 h, read-out: % Mortality (5DAT), 3rd instar, fipronil 4 mg/L, isolate O333A4 1×10^5 cfu/mL",21%
same,mortality at 4 µg/mL,"fall armyworm [2]; 144 h, read-out: % Mortality (6DAT), 3rd instar, fipronil 4 mg/L, isolate O24KEK 1×10^5 cfu/mL",39%
same,mortality at 4 µg/mL,"fall armyworm [2]; 144 h, read-out: % Mortality (6DAT), 3rd instar, fipronil 4 mg/L, isolate O43NEW 1×10^5 cfu/mL",20%
same,mortality at 4 µg/mL,"fall armyworm [2]; 144 h, read-out: % Mortality (6DAT), 3rd instar, fipronil 4 mg/L, isolate O333A4 1×10^5 cfu/mL",39%
same,% Mort. Chem.,"fall armyworm [2]; fall armyworm, 4 DAT (row with O24KEK)",5%
same,% Mort. Chem.,"fall armyworm [2]; fall armyworm, 4 DAT (row with O333A4)",5%
same,% Mort. Chem.,"fall armyworm [2]; fall armyworm, 5 DAT (row with O24G3R)",21%
same,% Mort. Chem.,"fall armyworm [2]; fall armyworm, 5 DAT (row with O43NEW)",5%
same,LT50 Chem.,"fall armyworm [2]; fall armyworm, Fipronil alone 4 mg/L",8.86 days and 6.71 days
N#C/N=C1\SCCN1Cc1ccc(Cl)nc1 [Thiacloprid],LT50 (95% confidence intervals) in days,"Colorado potato beetle [3]; 2nd instar larva, thiacloprid 1 mg/L, isolate O43NEW 1×10^6 cfu/mL",6.99 (6.44-7.58) days
same,% Mort. Chem.,"Colorado potato beetle [3]; Colorado potato beetle, Thiacloprid 1 mg/L, 5 DAT",26%
same,LT50 Chem.,"Colorado potato beetle [3]; Colorado potato beetle, Thiacloprid alone 1 mg/L",6.99 days
same,mortality at 1 µg/mL,"Colorado potato beetle [3]; 96 h, read-out: % Mortality (4DAT)",26%
same,mortality at 1 µg/mL,"Colorado potato beetle [3]; 120 h, read-out: % Mortality (5DAT)",26%
same,LT50 (95% confidence intervals),"Colorado potato beetle [4]; 3rd instar Colorado potato beetle, O43NEW undiluted filtrate, alone or combined",12.71 days
same,LT50 Chem.,Colorado potato beetle [4]; Colorado potato beetle,12.71 days
same,% Mort. Chem.,"Colorado potato beetle [4]; Colorado potato beetle, 6 DAT",13%
same,LT50 (95% confidence intervals),"diamondback moth; 2nd instar diamondback moth, O24G3R filtrate 1%, alone or combined",12.58 days
same,LT50 Chem.,diamondback moth; Diamondback moth,12.58 days
same,% Mort. Chem.,"diamondback moth; Diamondback moth, 7 DAT",17%
same,mortality at 100 µg/mL,"diamondback moth; 96 h, read-out: % Mortality (4DAT), 2nd instar diamondback moth, O24G3R filtrate 1%, alone or combined, 4 DAT",5%
same,mortality at 100 µg/mL,"diamondback moth; 120 h, read-out: % Mortality (5DAT), 2nd instar diamondback moth, O24G3R filtrate 1%, alone or combined, 5 DAT",10%
same,mortality at 100 µg/mL,"diamondback moth; 144 h, read-out: % Mortality (6DAT), 2nd instar diamondback moth, O24G3R filtrate 1%, alone or combined, 6 DAT",10%
same,mortality at 100 µg/mL,"diamondback moth; 168 h, read-out: % Mortality (7DAT), 2nd instar diamondback moth, O24G3R filtrate 1%, alone or combined, 7 DAT",17%
same,mortality at 100 µg/mL,"diamondback moth; 288 h, read-out: % Mortality (12DAT), 2nd instar diamondback moth, O24G3R filtrate 1%, alone or combined, 12 DAT",27%
same,mortality at 100 µg/mL,"diamondback moth; 312 h, read-out: % Mortality (13DAT), 2nd instar diamondback moth, O24G3R filtrate 1%, alone or combined, 13 DAT",33%
